Results: patent publication US6469008B2, “(R)-hydroxynefazodone antipsychotic therapy” (Sepracor Inc., priority 1999, dated 2002)

Columns and labels:
[1] = target: α1 Receptor; assay: α1 receptor binding; details: read-out: α1 Receptor Binding Alpha1 (IC50)
[2] = target: T1, 5-HT6 (Homo sapiens, UniProt P50406); assay: 5-HT6 receptor binding; details: read-out: Serotonin Receptor Binding 5-HT6 (IC50)
T1 construct: host or cells: membrane preparations
Method: (§1) Dopamine and serotonin receptor binding assays were performed in a standard manner with the incubation of membrane preparations in an assay buffer in the presence of a known radioactively labeled specific ligand for the receptor subtypes. Nonspecific binding was determined by assessing binding in the presence of excess ligand. Specific binding was measured as the total labeled ligand bound after the nonspecific binding was subtracted. The effect of the tested agents was measured by determining the competition for the receptor binding across a concentration range. Subsequently, an IC50 was determined for the agents tested. More specific details are provided below for several of the assays performed.

[3] = target: T2, Human D2 receptor (Homo sapiens, UniProt P14416); assay: Dopamine D2 receptor binding; details: [3H]spiperone, transfected A9L cell membranes
T2 construct: expressed in transfected cells; host or cells: A9L cells
T2 sequence (P14416 whole entry): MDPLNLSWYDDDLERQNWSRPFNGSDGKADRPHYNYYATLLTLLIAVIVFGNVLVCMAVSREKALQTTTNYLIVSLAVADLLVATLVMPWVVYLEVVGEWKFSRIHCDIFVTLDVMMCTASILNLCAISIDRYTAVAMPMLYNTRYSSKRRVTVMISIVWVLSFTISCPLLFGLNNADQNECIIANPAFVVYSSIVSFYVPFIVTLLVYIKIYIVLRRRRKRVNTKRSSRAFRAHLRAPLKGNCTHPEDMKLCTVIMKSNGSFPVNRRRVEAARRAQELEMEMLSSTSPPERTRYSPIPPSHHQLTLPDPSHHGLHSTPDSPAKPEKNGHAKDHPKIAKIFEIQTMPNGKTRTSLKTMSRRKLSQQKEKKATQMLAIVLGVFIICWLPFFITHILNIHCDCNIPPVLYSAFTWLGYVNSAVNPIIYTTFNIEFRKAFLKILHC
Method: as §1
(§2) Aliquots of transfected A9L cell membrane preparations corresponding to 20-40 μg protein are incubated for 60 min at 22° C. in 250 μl of 50 mM Tris-HCl buffer (pH 7.4) containing 120 mM NaCl, 5 mM KCl, 5 mM MgCl2, 1 mM EDTA, 0.3 nM [^3H]spiperone and increasing concentrations of the competing drugs. Nonspecific binding is determined in the presence of 10 μM (+)butaclamol. After incubation, the samples are filtered rapidly under vacuum through glass fiber filters (GF/B, Packard) and rinsed several times with ice-cold 50 mM Tris-HCl using a cell harvester (Packard). Bound radioactivity is measured with a scintillation counter (Topcount, Packard) using a liquid scintillation cocktail (Microscint 0, Packard). The reference compound for this assay is (+)butaclamol.

[4] = target: T3, D3 (Homo sapiens, UniProt P35462); assay: Dopamine D3 receptor binding
T3 construct: host or cells: membrane preparations
T3 sequence (P35462 whole entry): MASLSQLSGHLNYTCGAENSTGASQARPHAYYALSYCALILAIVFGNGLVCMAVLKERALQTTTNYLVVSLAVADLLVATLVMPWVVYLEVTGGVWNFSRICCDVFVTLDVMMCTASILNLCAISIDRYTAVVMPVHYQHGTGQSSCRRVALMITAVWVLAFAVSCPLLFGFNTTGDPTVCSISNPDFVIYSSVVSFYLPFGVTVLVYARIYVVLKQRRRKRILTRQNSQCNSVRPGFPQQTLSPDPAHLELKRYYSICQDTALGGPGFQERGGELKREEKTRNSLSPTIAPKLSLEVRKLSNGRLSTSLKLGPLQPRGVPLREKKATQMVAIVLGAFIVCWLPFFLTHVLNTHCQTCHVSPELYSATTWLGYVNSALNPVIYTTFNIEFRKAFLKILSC
Method: as §1

[5] = target: T4, 5-HT2B (Homo sapiens, UniProt P41595); assay: 5-HT2B receptor binding; details: read-out: Serotonin Receptor Binding 5-HT2B (IC50)
T4 construct: host or cells: membrane preparations
T4 sequence (P41595 whole entry, species assumed): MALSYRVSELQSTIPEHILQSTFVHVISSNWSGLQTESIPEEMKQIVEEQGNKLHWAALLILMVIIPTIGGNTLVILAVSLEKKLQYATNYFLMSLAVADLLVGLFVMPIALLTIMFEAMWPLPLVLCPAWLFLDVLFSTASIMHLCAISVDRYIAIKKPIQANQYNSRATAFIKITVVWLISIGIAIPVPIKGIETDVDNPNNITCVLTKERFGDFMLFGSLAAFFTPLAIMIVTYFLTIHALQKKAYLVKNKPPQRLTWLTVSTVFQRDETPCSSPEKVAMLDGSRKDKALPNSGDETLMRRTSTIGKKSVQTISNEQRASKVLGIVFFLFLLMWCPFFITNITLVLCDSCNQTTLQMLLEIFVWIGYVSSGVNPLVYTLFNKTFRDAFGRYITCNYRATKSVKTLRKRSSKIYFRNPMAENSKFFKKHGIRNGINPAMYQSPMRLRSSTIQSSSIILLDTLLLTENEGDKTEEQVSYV
Method: as §1

[6] = target: T5, 5-HT1B (Homo sapiens, UniProt P28222); assay: 5-HT1B receptor binding; details: read-out: Serotonin Receptor Binding 5-HT1B (IC50)
T5 construct: host or cells: membrane preparations
T5 sequence (P28222 whole entry, species assumed): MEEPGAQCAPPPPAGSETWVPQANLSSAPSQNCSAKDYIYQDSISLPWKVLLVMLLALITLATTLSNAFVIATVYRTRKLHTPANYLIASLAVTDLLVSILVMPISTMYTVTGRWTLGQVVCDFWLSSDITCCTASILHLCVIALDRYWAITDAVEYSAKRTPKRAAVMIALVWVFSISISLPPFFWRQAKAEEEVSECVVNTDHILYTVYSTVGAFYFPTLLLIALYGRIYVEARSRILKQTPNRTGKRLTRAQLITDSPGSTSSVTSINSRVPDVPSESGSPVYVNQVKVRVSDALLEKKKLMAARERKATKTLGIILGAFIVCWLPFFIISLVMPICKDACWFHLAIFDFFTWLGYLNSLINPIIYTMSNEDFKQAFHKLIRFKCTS
Method: as §1

[7] = target: T6, serotonin uptake by rat cortex synaptosomes (Rattus norvegicus, UniProt P31652); assay: Serotonin uptake functional assay; type: biochemical; details: [3H]5-hydroxytryptamin, read-out: Monoamine Neuronal Transport 5-HT Uptake (IC50)
T6 construct: from tissue; host or cells: male Wistar rat cortex synaptosomes
T6 sequence (P31652 whole entry): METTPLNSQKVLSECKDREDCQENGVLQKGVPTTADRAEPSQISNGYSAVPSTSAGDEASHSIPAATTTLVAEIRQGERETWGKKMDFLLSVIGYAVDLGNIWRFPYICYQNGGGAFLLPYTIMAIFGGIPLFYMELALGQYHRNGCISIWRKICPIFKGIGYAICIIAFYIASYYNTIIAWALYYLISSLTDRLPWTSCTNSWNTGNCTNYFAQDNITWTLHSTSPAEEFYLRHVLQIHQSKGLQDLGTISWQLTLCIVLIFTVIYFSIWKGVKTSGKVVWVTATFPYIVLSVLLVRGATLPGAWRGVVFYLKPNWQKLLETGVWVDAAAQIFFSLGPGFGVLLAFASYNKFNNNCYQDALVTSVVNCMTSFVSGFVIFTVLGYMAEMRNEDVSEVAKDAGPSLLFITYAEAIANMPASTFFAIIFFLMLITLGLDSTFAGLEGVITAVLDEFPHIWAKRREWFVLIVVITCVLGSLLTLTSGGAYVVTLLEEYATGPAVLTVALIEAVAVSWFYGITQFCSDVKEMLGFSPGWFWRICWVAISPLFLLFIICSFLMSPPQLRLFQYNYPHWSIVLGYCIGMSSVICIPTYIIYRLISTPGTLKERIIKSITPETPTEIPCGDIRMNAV
Method: Serotonin uptake functional assay
Characterization of serotonin uptake is performed using synaptosomes isolated in a 0.32 M sucrose buffer from a male Wistar rat cortex. The uptake of radiolabelled serotonin by synaptosomes (100 μg of proteins/point) is allowed by incubating them for 15 minutes at 37° C. in presence of test compounds and [3H]5-hydroxytryptamin (0.1 μCi/point). The experiment is performed in a deep well.
Synaptosomes and [3H]5-hydroxytryptamin are prepared in a Krebs buffer pH 7.4 containing 25 mM NaHCO3, 11 mM glucose and 50 μM ascorbic acid. This incubation buffer is oxygenated during 5 minutes before incubation. Basal control is incubated for 15 minutes at 4° C. in order to avoid any uptake. Following this incubation the uptake is stopped by filtration through an “unifilter 96-wells GF”Packard plate washed with Krebs buffer containing 25 mM NaHCO3 in order to eliminate the free [3H]5-hydroxytryptamin. The radioactivity associated to the synaptosomes retained onto the unifilter corresponding to the uptake is then measured with a microplate scintillation counter Topcount, Packard using a scintillation liquid microscint 0, Packard.
[See Perovics and Müiller “Pharmacological profile of hypericum extract: effect on serotonin uptake by postsynaptic receptors”, Arzeim Forsch/Drug Res. 45 1145-1148 (1995).]

[8] = target: T7, Human 5-HT2A receptor (Homo sapiens, UniProt P28223); assay: 5-HT2A receptor binding; details: [3H]ketanserin, transfected CHO cell membranes; read-out: Serotonin Receptor Binding 5-HT2A (IC50)
T7 construct: expressed in transfected cells; host or cells: CHO cells
T7 sequence (P28223 whole entry): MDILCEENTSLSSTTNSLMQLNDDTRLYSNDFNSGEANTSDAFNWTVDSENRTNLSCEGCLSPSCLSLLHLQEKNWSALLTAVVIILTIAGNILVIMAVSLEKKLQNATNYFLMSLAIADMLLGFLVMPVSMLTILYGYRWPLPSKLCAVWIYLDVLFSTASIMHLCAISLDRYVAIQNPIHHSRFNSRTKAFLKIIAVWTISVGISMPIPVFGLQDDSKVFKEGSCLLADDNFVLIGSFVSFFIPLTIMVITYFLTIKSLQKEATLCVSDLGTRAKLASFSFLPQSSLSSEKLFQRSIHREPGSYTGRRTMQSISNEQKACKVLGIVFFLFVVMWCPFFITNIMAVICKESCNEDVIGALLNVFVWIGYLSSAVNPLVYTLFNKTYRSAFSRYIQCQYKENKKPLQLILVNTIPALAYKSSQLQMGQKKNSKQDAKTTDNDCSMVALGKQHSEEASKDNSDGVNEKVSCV
Method: as §1
Aliquots of transfected CHO cell membrane preparations corresponding to 20-50 μg protein are incubated for 15 min at 37° C. in 250 μl of 50 mM Tris-HCl buffer (pH 7.4) containing 2 nM [^3H]ketanserin and increasing concentrations of the competing drugs. Nonspecific binding is determined in the presence of 1 μM ketanserin. After incubation, the samples are filtered rapidly under vacuum through glass fiber filters (GF/B, Packard) and rinsed several times with ice-cold 50 mM Tris-HCl using a cell harvester (Packard). Bound radioactivity is measured with a scintillation counter (Topcount, Packard) using a liquid scintillation cocktail (Microscint 0, Packard).
The reference compound for this assay is ketanserin.

[9] = target: T8, 5-HT5A (Homo sapiens, UniProt P47898); assay: 5-HT5A receptor binding; details: read-out: Serotonin Receptor Binding 5-HT5A (IC50)
T8 construct: host or cells: membrane preparations
T8 sequence (P47898 whole entry, species assumed): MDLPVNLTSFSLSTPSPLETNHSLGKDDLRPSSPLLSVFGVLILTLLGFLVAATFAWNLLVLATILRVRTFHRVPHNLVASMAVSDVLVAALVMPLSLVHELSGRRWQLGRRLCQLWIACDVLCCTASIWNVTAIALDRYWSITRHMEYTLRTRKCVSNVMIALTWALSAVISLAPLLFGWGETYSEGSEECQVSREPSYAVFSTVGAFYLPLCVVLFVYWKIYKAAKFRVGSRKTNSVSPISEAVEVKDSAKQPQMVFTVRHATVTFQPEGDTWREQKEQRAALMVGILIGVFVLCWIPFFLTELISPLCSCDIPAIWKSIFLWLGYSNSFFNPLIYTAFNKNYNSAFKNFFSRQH
Method: as §1

[10] = target: T9, 5-HT1A receptors (Homo sapiens, UniProt P08908); assay: 5-HT1A receptor binding; set-up: expressed in transfected cells; host or cells: CHO cells; details: [3H]8-OH-DPAT, transfected CHO cell membranes; read-out: Serotonin Receptor Binding 5-HT1A (IC50)
T9 sequence (P08908 1-422): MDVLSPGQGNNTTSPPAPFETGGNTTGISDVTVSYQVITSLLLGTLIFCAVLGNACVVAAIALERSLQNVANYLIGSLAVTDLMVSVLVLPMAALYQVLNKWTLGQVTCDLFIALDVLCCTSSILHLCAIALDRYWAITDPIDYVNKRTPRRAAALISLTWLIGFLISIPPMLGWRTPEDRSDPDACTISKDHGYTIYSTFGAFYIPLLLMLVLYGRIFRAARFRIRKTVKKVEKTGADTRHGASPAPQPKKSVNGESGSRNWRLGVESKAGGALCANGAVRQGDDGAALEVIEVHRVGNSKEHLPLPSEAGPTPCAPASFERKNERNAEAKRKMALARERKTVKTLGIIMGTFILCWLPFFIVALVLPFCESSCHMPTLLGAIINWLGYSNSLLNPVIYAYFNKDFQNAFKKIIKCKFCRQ
Method: as §1
as §2, with “CHO” for “A9L”, “7-15” for “20-40”, “10” for “120”, “MgSO4, 0.5” for “NaCl, 5 mM KCl, 5 mM MgCl2, 1”, “[^3H]8-OH-DPAT” for “[^3H]spiperone”, “8-OH-DPAT.” for “(+)butaclamol.”

T1 sequence (P50406 whole entry, species assumed): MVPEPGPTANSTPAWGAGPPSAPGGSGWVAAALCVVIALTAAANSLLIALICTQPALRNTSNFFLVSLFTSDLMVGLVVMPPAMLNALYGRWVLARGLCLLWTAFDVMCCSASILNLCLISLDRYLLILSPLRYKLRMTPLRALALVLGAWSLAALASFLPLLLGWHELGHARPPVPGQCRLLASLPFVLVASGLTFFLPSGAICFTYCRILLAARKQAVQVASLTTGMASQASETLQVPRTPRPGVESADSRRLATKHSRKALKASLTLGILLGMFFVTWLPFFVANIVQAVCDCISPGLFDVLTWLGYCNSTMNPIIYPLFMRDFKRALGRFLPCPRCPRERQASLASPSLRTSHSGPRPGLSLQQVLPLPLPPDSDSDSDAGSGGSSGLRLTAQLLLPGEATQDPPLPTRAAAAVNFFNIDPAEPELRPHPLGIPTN

| IC50 [1] | IC50 [2] | IC50 [3] | IC50 [4] | IC50 [5] | IC50 [6] | IC50 [7] | IC50 [8] | IC50 [9] | IC50 [10] | Structure (SMILES) |
| --- | --- | --- | --- | --- | --- | --- | --- | --- | --- | --- |
| 381 nM | 856 nM | 1420 nM | 2560 nM | 34 nM | 4550 nM | 500 nM | 20 nM | 2230 nM | 409 nM | CC(O)c1nn(CCCN2CCN(c3cccc(Cl)c3)CC2)c(=O)n1CCOc1ccccc1 (racemic) [(RS)-OH, 2-[3-[4-(3-chlorophenyl)1-piperazinyl]propyl]-5-(1-hydroxyethyl)-2,4-dihydro-4-(phenoxyethyl)-3H-1,2,4-triazol-3-one, reference compound] |
| 367 nM | 1020 nM | 1690 nM | 3490 nM | 28 nM | 3610 nM | 640 nM | 22 nM | 2040 nM | 496 nM | C[C@@H](O)c1nn(CCCN2CCN(c3cccc(Cl)c3)CC2)c(=O)n1CCOc1ccccc1 [(R)-OH, (R)-hydroxynefazodone] |
| 419 nM | 489 nM | 788 nM | 1910 nM | 41 nM | 2840 nM | 790 nM | 18 nM | 1970 nM | 249 nM | C[C@H](O)c1nn(CCCN2CCN(c3cccc(Cl)c3)CC2)c(=O)n1CCOc1ccccc1 [(S)-OH, (S)-2-{3-[4-(3-Chlorophenyl)-1-piperazinyl]propyl}-4-(2-phenoxyethyl)-5-[1-(hydroxy)-ethyl]-2,4-dihydro-[1,2,4]triazol-3-one] |
